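The compound was tested at five concentrations on cells cultured in 96-well plates, with a 48-hour exposure period. GI50 = concentration required for 50% inhibition of growth.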 Calls of active or inactive are those of the source. Cut-off read from the data, not from the text of the source: active = GI50 up to about 1.1 µM and inactive = higher.
Assays:
Test in all cases: growth of human tumour cells (NCI), 48 h
[1] = test system: U-251
[2] = test system: MDA-MB-231
[3] = test system: UACC-62
[4] = test system: OVCAR-3
[5] = test system: MDA-N
[6] = test system: K562
[7] = test system: HOP-92
[8] = test system: DU-145
[9] = test system: SW-620
[10] = test system: SN12C
[11] = test system: OVCAR-5
[12] = test system: HCT-15
[13] = test system: OVCAR-4
[14] = test system: LOX IMVI
[15] = test system: CAKI-1
[16] = test system: PC-3
[17] = test system: SK-MEL-5
[18] = test system: NCI-H23
[19] = test system: HCT-116

Row | Compound | GI50 [1] | GI50 [2] | GI50 [3] | GI50 [4] | GI50 [5] | GI50 [6] | GI50 [7] | GI50 [8] | GI50 [9] | GI50 [10] | GI50 [11] | GI50 [12] | GI50 [13] | GI50 [14] | GI50 [15] | GI50 [16] | GI50 [17] | GI50 [18] | GI50 [19]
1 | COc1ccc2c(c1)C(=O)C(=O)c1cc(O)c(OC)c(OC)c1-2 | 0.863 µM (active) | 0.957 µM (active) | 0.849 µM (active) | 0.946 µM (active) | 0.697 µM (active) | 0.838 µM (active) | 0.875 µM (active) | 0.918 µM (active) | 1.2 µM (inactive) | 0.879 µM (active) | 1.12 µM (inactive) | 0.91 µM | 0.719 µM (active) | 0.883 µM (active) | 0.918 µM (active) | 1.07 µM (active) | 0.826 µM (active) | 0.889 µM (active) | 0.813 µM (active)
2 | O=C1c2c(Br)sc(Br)c2[C@H]2NC(=S)O[C@@H]12 | 13.2 µM (inactive) | 17.9 µM (inactive) | 15.7 µM (inactive) | 7.94 µM (inactive) | 16 µM (inactive) | 2.98 µM (inactive) | 18 µM (inactive) | 16 µM (inactive) | 3.18 µM (inactive) | 17.6 µM (inactive) | 19.2 µM (inactive) | 4.18 µM | 17.1 µM (inactive) | 13.9 µM (inactive) | 11.8 µM (inactive) | 14.5 µM (inactive) | 15.8 µM (inactive) | 14.8 µM (inactive) | 10.7 µM (inactive)
3 | COC1=CCC2=C(CCN(C(=O)C3CCC3)C2Cc2ccc(OC)c(O)c2)C1 (stereo not drawn) | 28.9 µM (inactive) | 21.1 µM (inactive) | 20.4 µM (inactive) | 5.93 µM (inactive) | 2.7 µM (inactive) | 4.45 µM (inactive) | 20.9 µM (inactive) | 20.3 µM (inactive) | 12.8 µM (inactive) | 19.5 µM (inactive) | 29.5 µM (inactive) | 4.85 µM | 23 µM (inactive) | 36.6 µM (inactive) | 30.6 µM (inactive) | 23.6 µM (inactive) | 8.34 µM (inactive) | 10 µM (inactive) | 11.9 µM (inactive)
4 | C1CCSCCCCSCCCCSCCCCSC1 | > 100 µM (inactive) | > 100 µM (inactive) | > 100 µM (inactive) | > 100 µM (inactive) | > 100 µM (inactive) | > 100 µM (inactive) | > 100 µM (inactive) | > 100 µM (inactive) | > 100 µM (inactive) | > 100 µM (inactive) | > 100 µM (inactive) | > 100 µM | > 100 µM (inactive) | > 100 µM (inactive) | > 100 µM (inactive) | > 100 µM (inactive) | > 100 µM (inactive) | > 100 µM (inactive) | > 100 µM (inactive)
5 | CN(C)/C=N/S(=O)(=O)c1nn2c(C=O)c(-c3ccc([N+](=O)[O-])cc3)nc2s1 | 8.69 µM (inactive) | 12.4 µM (inactive) | 4.91 µM (inactive) | 4.11 µM (inactive) | 2.91 µM (inactive) | 2.43 µM (inactive) | 12.6 µM (inactive) | 6.67 µM (inactive) | 2.52 µM (inactive) | 5.42 µM (inactive) | 23.4 µM (inactive) | 2.94 µM | 11.4 µM (inactive) | 2.93 µM (inactive) | 0.627 µM (active) | 7.21 µM (inactive) | 3.3 µM (inactive) | 12 µM (inactive) | 1.67 µM (inactive)
6 | O=C(O)C1CSC2(CCCN(Cc3ccccc3)C2)N1 (stereo not drawn) | > 100 µM (inactive) | > 100 µM (inactive) | > 100 µM (inactive) | > 100 µM (inactive) | > 100 µM (inactive) | > 28.8 µM (inactive) | > 100 µM (inactive) | > 100 µM (inactive) | > 100 µM (inactive) | > 100 µM (inactive) | > 100 µM (inactive) | > 100 µM | > 100 µM (inactive) | > 100 µM (inactive) | > 100 µM (inactive) | > 100 µM (inactive) | > 100 µM (inactive) | > 100 µM (inactive) | > 100 µM (inactive)
7 | CC1(C)SC2C(NC(=O)Cc3ccccc3)C(=O)N2C1C(=O)O (stereo not drawn) | > 100 µM (inactive) | > 100 µM (inactive) | > 100 µM (inactive) | > 100 µM (inactive) | > 100 µM (inactive) | > 100 µM (inactive) | > 100 µM (inactive) | > 100 µM (inactive) | > 100 µM (inactive) | > 100 µM (inactive) | > 100 µM (inactive) | > 100 µM | > 100 µM (inactive) | > 100 µM (inactive) | > 100 µM (inactive) | > 100 µM (inactive) | > 100 µM (inactive) | > 100 µM (inactive) | > 100 µM (inactive)
